Assays:
[1] = tested on: murine bronchial ring; assay: Ex vivo bronchial ring contraction (Mulvany myograph) after chronic treatment, methacholine-induced bronchoconstriction; format: in vivo, mouse; settings: asthmatic mice
Description: (§1) Seven-week old mice were sensitized by cutaneous route to house dust mite (HDM) extracts on DO, 7, 14 and 21. After this skin sensitization phase to the allergen, the mice receive the allergen by the nasal route (challenge phase) on D27, 28, 29, 34, 35 and 36 to induce bronchial exacerbation. This severe allergic asthma model has been characterized as mimicking human pathology (Dilasser et al. Thorax 2021).
(§2) BIG101 (batch RL11T1204A0) was administered to the mice in drinking water 7 days a week, at a dose of 50 mg/kg/day. The drinking water containing BI0101 was replaced twice weekly until the animals were sacrificed.
(§3) The evaluation of the effect of chronic administration of BI0101 treatment on ex vivo murine bronchial ring contraction was carried out in an isolated organ chamber (isometric tension measurement, Mulvany myograph, DMT, Hinnerup, Denmark) (André-Grégoire et al., 2018).
(§4) The bronchi are collected, cleaned, cut into rings and set up in the Mulvany myograph. The rings are pre-stretched and then stimulated with 60 mM KCl until the contractile response amplitude has stabilized (2 or 3 stimulations) before the start of each experimental protocol. […]

[2] = tested on: murine bronchial ring; assay: Ex vivo bronchial ring contraction (Mulvany myograph) after chronic treatment, serotonin-induced bronchoconstriction; format: in vivo, mouse; settings: asthmatic mice
Description: as §1, §2, §3, §4

[3] = tested on: bronchial ring; assay: Acute administration in the vessel containing the bronchial ring, contractile response to methacholine; parameters: species or system mouse; settings: p=ns vs internal control without BI0101
[4] = tested on: bronchial ring; assay: Acute administration in the vessel containing the bronchial ring, contractile response to serotonin; parameters: species or system mouse; settings: p=ns vs internal control without BI0101
[5] = tested on: 5-HT1A receptor; assay: Real-time PCR gene expression in bronchi after chronic treatment; format: in vivo, mouse; settings: chronic treatment 50 mg/kg/day, D38, p<0.05
Description: (§5) Seven-week old mice were sensitized by cutaneous route to house dust mite (HDM) extracts on DO, 7, 14 and 21. After this skin sensitization phase to the allergen, the mice receive the allergen by the nasal route (challenge phase) on D27, 28, 29, 34, 35 and 36 to induce bronchial exacerbation. This severe allergic asthma model has been characterized as mimicking human pathology ([…] et al. Thorax 2021). BIG101 (batch RL11T1204A0) was administered to the mice in drinking water 7 days a week, at a dose of 50 mg/kg/day. The drinking water containing BI0101 was replaced twice weekly until the animals were sacrificed. On […], the bronchi of healthy non-asthmatic mice (control; n=10), non-asthmatic control mice treated with BI0101 (controls+BIO101; n=10), asthmatic mice (Asthma; n=10) and asthmatic mice treated with BI0101 (Asthma+BIO101; n=10) were collected. After RNA extraction from these tissues (Trizol©, ThermoFisher cat. 15596018), an analysis of serotonin receptor (5-HT1A, 5-HT1B, 5-HT2A, 5-HT2B and 5-HT7) and serotonin transporter (5HTT) expression was evaluated with real-time PCR (TaqManTM, Universal PCR MasterMix, ThermoFisher cat. 4304437). The list of ThermoFisher Scientific commercial test references used for real-time PCR to obtain the results for each of the genes is given in Table 1 below: […]

[6] = tested on: 5-HT1B; assay: as above; format: in vivo, mouse; settings: healthy or asthmatic mice, chronic treatment 50 mg/kg/day
Description: as §5

[7] = tested on: 5-HT2A; assay: as above; format: in vivo, mouse; settings: healthy or asthmatic mice, chronic treatment 50 mg/kg/day
Description: as §5

[8] = tested on: 5-HT2B; assay: as above; format: in vivo, mouse; settings: healthy or asthmatic mice, chronic treatment 50 mg/kg/day
Description: as §5

[9] = tested on: 5-HT7; assay: as above; format: in vivo, mouse; settings: healthy or asthmatic mice, chronic treatment 50 mg/kg/day
Description: as §5

[10] = tested on: 5-HTT; assay: as above; format: in vivo, mouse; settings: healthy or asthmatic mice, chronic treatment 50 mg/kg/day
Description: as §1, with “([…]” for “(Dilasser”, “2021). BIG101 (batch RL11T1204A0) was administered to the mice in drinking water 7 days a week, at a dose of 50 mg/kg/day. The drinking water containing BI0101 was replaced twice weekly until the animals were sacrificed.” for “2021).”

[11] = tested on: mouse model of severe allergic asthma; assay: Histological analysis of lung sections stained with hematoxylin and eosin; format: in vivo; settings: chronic treatment 50 mg/kg/day
Description: as §1, §2

[12] = tested on: mouse model of severe allergic asthma; assay: Bronchoalveolar fluid cellularity; format: in vivo
Description: Seven-week old mice were sensitized by cutaneous route to house dust mite (HDM) extracts on DO, 7, 14 and 21. After this skin sensitization phase to the allergen, the mice receive the allergen by the nasal route (challenge phase) on D27, 28, 29, 34, 35 and 36 to induce bronchial exacerbation. This severe allergic asthma model has been characterized as mimicking human pathology ([…] et al. Thorax 2021). BIG101 (batch RL11T1204A0) was administered to the mice in drinking water 7 days a week, at a dose of 50 mg/kg/day. The drinking water containing BI0101 was replaced twice weekly until the animals were sacrificed. On […], sterile PBS (between 200 μL and 1 mL) was administered by the intratracheal route to the mice using a catheter. The bronchoalveolar fluid (BALF) cells and supernatant are retrieved and separated by centrifugation. The total number of cells was counted on Kova slides by optical microscopy. The cellularity of each sample was evaluated by calculating the ratio of the total number of cells counted, divided by the volume of bronchoalveolar fluid. The cellularity represents the infiltrate of immune cells (macrophages, lymphocytes, eosinophils and neutrophils).

[13] = tested on: mouse model of severe allergic asthma; assay: Respiratory function by plethysmography (Penh) in response to methacholine; format: in vivo
Description: as §1, §2
In order to study whether the reduction of inflammation in BALF could induce functional improvement after severe asthma induction, respiratory function was evaluated by plethysmography. This technique makes it possible to carry out a longitudinal study of respiratory capacity and also expiratory pause time (Penh) non-invasively. Breathing-induced flow and pressure changes are measured before and after exposure to nebulization with increasing doses of NaCl followed by methacholine. […]
The pressure variations measured relative to a reference chamber make it possible to define various respiratory parameters such as inspiratory and expiratory pressure peaks and times, and also a unitless parameter referred to as Penh (enhanced Pause) which makes it possible to evaluate bronchoconstriction. Indeed, the Penh value, calculated from the pressure signal in the chamber (Pb), is an important index to obtain, because changes in the Penh value evolve in parallel with those of respiratory resistance and therefore it represents a predictive parameter of changes in resistive properties of the respiratory system (Hamelmann et al., 1997; Bergren, 2001; Onclinx et al., 2003). The following values were calculated from the filtered Pb: the maximum change in Pb during expiration (PEP for “Peak Expiratory Pressure”), the maximum change in Pb during inspiration (PIP for “Peak Inspiratory Pressure”), and the time interval (TR). The Penh value was then calculated as follows: […]

[14] = chronic treatment 50 mg/kg/day in drinking water, D38, Asthma vs Asthma+BIO101 p<0.0001

## CC(C)(O)CC[C@@H](O)[C@](C)(O)[C@H]1CC[C@@]2(O)C3=CC(=O)[C@@H]4C[C@@H](O)[C@@H](O)C[C@]4(C)[C@H]3CC[C@]12C [BI0101, 20-hydroxyecdysone]
[1]; [14]
  methacholine-induced bronchoconstriction: significantly decreases
[1]; chronic treatment 50 mg/kg/day, Asthma+BIO101 vs Control p=0.0025
  prevention of exacerbated bronchial airway reactivity (methacholine): does not prevent
[2]; [14]
  serotonin-induced bronchoconstriction: significantly reduces
[2]; chronic treatment 50 mg/kg/day, Asthma+BIO101 vs Control p=0.9997
  prevention of exacerbated bronchial airway reactivity (serotonin): completely prevents
[3]
  contractile response to methacholine: 0.41±0.25 mN
[4]
  contractile response to serotonin: 0.29±0.14 mN
[5]; asthmatic mice (asthma+BIO101)
  5-HT1A receptor gene expression decrease in bronchi: −69±3%
[5]; healthy mice (control+BIO101)
  5-HT1A receptor gene expression decrease in bronchi: −49%±12%
[6]
  5-HT1B gene expression in bronchi: does not induce any modification
[7]
  5-HT2A gene expression in bronchi: does not induce any modification
[8]
  5-HT2B gene expression in bronchi: does not induce any modification
[9]
  5-HT7 gene expression in bronchi: does not induce any modification
[10]
  5-HTT (serotonin transporter) gene expression in bronchi: does not induce any modification
[11]; asthmatic mice
  increase in bronchial muscle mass and epithelial barrier dysfunction associated with severe asthma: appear to be less substantial
  peribronchial and perivascular inflammation: reduces
[11]; healthy mice (control)
  effect on lung histology: has no effect
[12]; asthmatic mice treated with BI0101 vs asthmatic mice, D38, p=ns
  change of BALF cellularity (inflammation present in BALFs): −39.8%
[12]; control mice treated with BI0101, D38, p=ns vs untreated control
  BALF cellularity (total number of cells divided by volume of bronchoalveolar fluid): 260±64
[13]; asthmatic mice treated with BI0101, 50 mg/kg/day, 40 mg/ml of methacholine
  Penh value: 9.81±1.1
[13]; asthmatic mice treated with BI0101 vs asthmatic mice, 40 mg/ml of methacholine, p<0.05
  reduction of the Penh value: 18.1%
[13]; healthy control mice treated with BI0101
  effect on respiratory function (Penh, methacholine aerosol): does not appear to have an effect
